# Ends that are not written are not given here.
# Target: SCRIB PDZ2 H928A (Homo sapiens, UniProt Q14160, H928A)
# Assay: biochemical
# Type: binding
# Chain of SCRIB PDZ2 H928A (Q14160 860-950 H928A limits assumed): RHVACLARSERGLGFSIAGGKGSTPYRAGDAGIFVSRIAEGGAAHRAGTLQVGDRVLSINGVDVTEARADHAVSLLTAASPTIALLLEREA
sequence,measurement,value
KMARTIESEV [Vietnam (ESEV)],Kd,3.6 ± 0.7 µM
